Results: the supplement of paper PMC9663587

Legend:
Taselisib/GDC0032 = compound: Cc1nc(-c2cn3c(n2)-c2ccc(-c4cnn(C(C)(C)C(N)=O)c4)cc2OCC3)n(C(C)C)n1 [Taselisib/GDC0032]
[1] = compound: CO[C@@H](C)Cn1c(=O)n(C)c2cnc3ccc(-c4cncc(C(C)(C)O)c4)cc3c21
Flavopiridol [2] = compound: T1, CN1CC[C@H](c2c(O)cc(O)c3c(=O)cc(-c4ccccc4Cl)oc23)[C@H](O)C1 [Flavopiridol]
Saracatinib/AZD0530 = compound: CN1CCN(CCOc2cc(OC3CCOCC3)c3c(Nc4c(Cl)ccc5c4OCO5)ncnc3c2)CC1 [Saracatinib/AZD0530]
ABT-737 = compound: CN(C)CC[C@H](CSc1ccccc1)Nc1ccc(S(=O)(=O)NC(=O)c2ccc(N3CCN(Cc4ccccc4-c4ccc(Cl)cc4)CC3)cc2)cc1[N+](=O)[O-] [ABT-737]
BSJ-03-123 = compound: CC(=O)c1c(C)c2cnc(Nc3ccc(N4CCN(CCOCCOCCOCCNC(=O)COc5cccc6c5C(=O)N(C5CCC(=O)NC5=O)C6=O)CC4)cn3)nc2n(C2CCCC2)c1=O [BSJ-03-123]; assay: GR value, 72 h; higher = faster growth (1 = untreated, <0 = killing);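 note: breast cancer and non-malignant breast epithelial lines, nine half-log doses, viable cells counted by Hoechst and LIVE/DEAD dye imaging versus time-zero plates and DMSO controls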
Flavopiridol [3] = compound: T1, Flavopiridol; assay: as above
THZ1 = compound: CN(C)C/C=C/C(=O)Nc1ccc(C(=O)Nc2cccc(Nc3ncc(Cl)c(-c4c[nH]c5ccccc45)n3)c2)cc1 [THZ1]; assay: as above
LEE011/Ribociclib = compound: CN(C)C(=O)c1cc2cnc(Nc3ccc(N4CCNCC4)cn3)nc2n1C1CCCC1 [LEE011/Ribociclib]; assay: as above
THZ531 = compound: CN(C)C/C=C/C(=O)Nc1ccc(C(=O)N2CCC[C@@H](Nc3ncc(Cl)c(-c4c[nH]c5ccccc45)n3)C2)cc1 [THZ531]; assay: as above
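Throughout, for GR50, 72 h: breast cancer and non-malignant breast epithelial cell lines, Deep Dye Drop or Dye Drop imaging, nine half-log doses, GR normalized to time-zero plates and DMSO-only controls.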

**Q.** What does the source list for EFM19?
**A.** GR50, 72 h (Taselisib/GDC0032): 0.00333 µM; GR50, 72 h [1]: 0.00381 µM; GR50, 72 h (Flavopiridol [2]): 0.284 µM; GR50, 72 h (Saracatinib/AZD0530): 3.5 µM; GR50, 72 h (ABT-737): 8.35 µM; GR value (BSJ-03-123; 0.001 µM): 0.951 GR; GR value (BSJ-03-123; 0.003162 µM): 0.918 GR; GR value (BSJ-03-123; 0.01 µM): 0.806 GR; GR value (BSJ-03-123; 0.03162 µM): 0.733 GR; GR value (BSJ-03-123; 0.1 µM): 0.717 GR; GR value (BSJ-03-123; 0.3162 µM): 0.654 GR; GR value (BSJ-03-123; 1 µM): 0.48 GR; GR value (BSJ-03-123; 3.162 µM): 0.447 GR; GR value (BSJ-03-123; 10 µM): 0.117 GR; GR value (Flavopiridol [3]; 0.0001 µM): 1.03 GR; GR value (Flavopiridol [3]; 0.0003162 µM): 0.976 GR; GR value (Flavopiridol [3]; 0.001 µM): 0.978 GR; GR value (Flavopiridol [3]; 0.003162 µM): 0.991 GR; GR value (Flavopiridol [3]; 0.01 µM): 0.877 GR; GR value (Flavopiridol [3]; 0.03162 µM): 0.976 GR; GR value (Flavopiridol [3]; 0.1 µM): 0.809 GR; GR value (Flavopiridol [3]; 0.3162 µM): 0.466 GR; GR value (Flavopiridol [3]; 1 µM): -0.199 GR; GR value (THZ1; 0.0001 µM): 0.946 GR; GR value (THZ1; 0.0003162 µM): 1.1 GR; GR value (THZ1; 0.001 µM): 1.04 GR; GR value (THZ1; 0.003162 µM): 0.932 GR; GR value (THZ1; 0.01 µM): 1.01 GR; GR value (THZ1; 0.03162 µM): 0.922 GR; GR value (THZ1; 0.1 µM): 0.86 GR; GR value (THZ1; 0.3162 µM): 0.69 GR; GR value (THZ1; 1 µM): -0.299 GR; GR value (LEE011/Ribociclib; 0.001 µM): 0.892 GR; GR value (LEE011/Ribociclib; 0.003162 µM): 0.802 GR; GR value (LEE011/Ribociclib; 0.01 µM): 0.825 GR; GR value (LEE011/Ribociclib; 0.03162 µM): 0.914 GR; GR value (LEE011/Ribociclib; 0.1 µM): 0.688 GR; GR value (LEE011/Ribociclib; 0.3162 µM): 0.61 GR; GR value (LEE011/Ribociclib; 1 µM): 0.6 GR; GR value (LEE011/Ribociclib; 3.162 µM): 0.415 GR; GR value (LEE011/Ribociclib; 10 µM): 0.355 GR; GR value (THZ531; 0.0001 µM): 0.996 GR; GR value (THZ531; 0.0003162 µM): 0.978 GR; GR value (THZ531; 0.001 µM): 0.907 GR; GR value (THZ531; 0.003162 µM): 0.911 GR; GR value (THZ531; 0.01 µM): 1.07 GR; GR value (THZ531; 0.03162 µM): 0.896 GR
